From US20040235083A1, “Screening method” (priority 2001, published 2004)

Assays:
[1] = biological target: T1, NQO2 (Mus musculus, UniProt Q9JI75); experiment: Effect of compound on NQO2 activity (reduction of methyl red by GST-NQO2 fusion protein, absorbance at 436 nm); assay type: biochemical; settings: 1 μM compound; 10 nM fusion protein, 30 μM methyl red, 25° C., pH 7.4; read-out: inhibitory action on NQO2 activity
T1 construct: made in house; host or cells: E. coli DH5α carrying pGEX-4T-2 with the insert
T1 sequence (Q9JI75 1-231): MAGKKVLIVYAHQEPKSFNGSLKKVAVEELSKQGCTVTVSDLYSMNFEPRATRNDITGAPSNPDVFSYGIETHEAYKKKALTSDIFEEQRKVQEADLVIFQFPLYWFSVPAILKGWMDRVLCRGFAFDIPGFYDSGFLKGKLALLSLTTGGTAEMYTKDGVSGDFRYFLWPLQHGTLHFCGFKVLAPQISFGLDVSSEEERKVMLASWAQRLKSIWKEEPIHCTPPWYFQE
Experimental: Entire RNA was prepared from a mouse osteoblastic cell line, MC3T3-E1, and cDNA was synthesized by using the oligo-dT primer. PCR was performed by using the cDNA as a template and two synthetic DNAs having the nucleotide sequences of SEQ ID NO: 5 and SEQ ID NO: 6, respectively, as primers to add the sequences recognized-by restriction enzymes. The resulting DNA fragment was cleaved with restriction enzymes BamHI and SalI and inserted into the BamHI-SalI cleavage site of plasmid pGEX-4T-2 (Amersham Pharmacia Biotech). The nucleotide sequence was confirmed, and then E. coli DH5α (GIBCO BRL) carrying the plasmid was cultured in an LB medium. According to the protocol recommended by Amersham Pharmacia Biotech, expression was induced by IPTG, and then purification was performed by using Glutathione-Sepharose (Amersham Pharmacia Biotech). From 2 L of the LB medium, 3.0 mg of the fusion protein was obtained.
Compound A having an osteogenesis-promoting action was examined for effects on the NQO2 activity by using the fusion protein obtained in the above (1). […] The decrease in absorbance at 436 nm was monitored to detect the reduction of methyl red. […]

[2] = tested on: osteoblasts; experiment: Alkaline phosphatase induction in the test using osteoblasts; assay type: cell-based; settings: concentration of 1 μM
[3] = tested on: osteoblastic cell line MC3T3-E1; experiment: Alkaline phosphatase activity in MC3T3-E1 after introduction of antisense or sense DNA to NQO2 mRNA; assay type: cell-based, mouse; settings: MC3T3-E1, S-oligo DNA with FuGene 6, four days incubation, corrected for protein
Experimental: The alkaline phosphatase activity is represented by a relative activity (%) by taking a control value (with no DNA) as 100.
The mouse osteoblastic cell line, MC3T3-E1, in a MEMα medium containing 10% fetal calf serum and 100 μg/ml of kanamycin was inoculated on a 48-well plate at 1.4×10^4 cells per well and cultured overnight. To 100 μl of a serum-free αMEM were added 3 μl of FuGene 6 (Roche), 1.5 μg of the S-oligo DNA having the sequence of SEQ ID NO: 7 (antisense sequence to mouse NQO2 mRNA) and 1.5 μg of the S-oligo DNA having the sequence of SEQ ID NO: 8 (sense sequence to the mRNA) and the mixture was allowed to stand at room temperature for 15 minutes. To each well was added 22 μl of the mixture and incubated under 5% CO2 at 37° C. overnight. Thereafter, ascorbic acid was added at a final concentration of 50 μg/ml, and 10 mM of β-glycerophosphate was added. Incubation was performed for four days, and the activity of the alkaline phosphatase was measured according to Notoya et al. (Journal of Bone and Mineral Research 9: 395-400, 1994). The concentration of the protein in each cell homogenate was measured, and the activity values were corrected and shown in FIG. 1 by taking the activity obtained by the same procedure without addition of the DNA as 100%.

| Molecule | inhibition at 1 µM [1] [%] | alkaline phosphatase-inducing action [2] | alkaline phosphatase activity relative to cells without introduction of DNA (100%) [3] |
| --- | --- | --- | --- |
| O=C1NC(=O)C(Cc2ccc(NC(=O)C3=CC(=O)C4C(O)=CC=CC4O3)cc2)S1 (stereo not shown) [Compound A] | 38 | alkaline phosphatase-inducing action | – |
| antisense DNA: S-oligo DNA having the sequence of SEQ ID NO: 7 (antisense sequence to mouse NQO2 mRNA) (antisense CTGCCATGTTGGAGGAGATA; DNA, all phosphorothioate, methylation of C not given here) | – | – | significantly higher |
| sense sequence DNA: S-oligo DNA having the sequence of SEQ ID NO: 8 (sense sequence to the mRNA) (sense TATCTCCTCCAACATGGCAG; DNA, all phosphorothioate, methylation of C not given here) [reference compound] | – | – | no difference was observed |
